Test results reported in patent US20220098203A1 (priority 2018, published 2022).
Where two headings read alike, the source gives them in different places.

Assays:
[1] = target: T1, MAT2A homodimer (Homo sapiens, UniProt P31153); experiment: MAT2A biochemical assay (liberated phosphate, PiColorLock Gold); conditions: Table 5a; MAT2A biochemical assay; read-out: Enzyme Inhibition
T1 construct: inferred from the Ni sepharose purification and imidazole elution; made in house; host or cells: SF9 insect cells, recombinant baculovirus (Bac to Bac, pFASTBAC1)
T1 sequence (P31153 whole entry): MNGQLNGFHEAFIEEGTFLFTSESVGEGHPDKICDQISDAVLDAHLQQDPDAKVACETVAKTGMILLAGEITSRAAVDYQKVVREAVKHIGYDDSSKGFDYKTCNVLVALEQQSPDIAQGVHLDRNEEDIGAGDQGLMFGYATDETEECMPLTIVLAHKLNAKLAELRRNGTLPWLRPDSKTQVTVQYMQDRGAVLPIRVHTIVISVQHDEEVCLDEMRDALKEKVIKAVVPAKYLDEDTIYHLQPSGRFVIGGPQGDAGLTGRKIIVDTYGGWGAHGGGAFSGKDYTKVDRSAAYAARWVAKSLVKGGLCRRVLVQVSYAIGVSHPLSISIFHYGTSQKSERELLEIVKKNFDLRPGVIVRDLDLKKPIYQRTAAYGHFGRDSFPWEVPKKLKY
Summary of the method: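 Readout is liberated phosphate (PiColorLock Gold), stoichiometric with SAM production, quantified against a potassium phosphate standard curve. Enzyme: recombinant MAT2A homodimer from Sf9, equilibrated 60 min at 25 °C with compound before 60 min reaction with substrate mix containing 500 μM ATP and 400 μM L-methionine.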

[2] = system: HCT116 MTAP-/-; experiment: Inhibition of cellular proliferation (Cell Titer Glo), HCT116 MTAP-/-; assay type: cell-based, human; conditions: 4 days, read-out: 4 Day Relative Growth Inhibition (MTAP −/−)
Procedure: (§1) Test compound impact on cancer cell growth was assessed by treating cancer cells with compound for 4 days and then measuring proliferation using an ATP-based cell proliferation readout (Cell Titer Glo, Promega Corporation).
(§2) In a typical assay an isogenic pair of HCT116 human colon carcinoma cell lines which vary only in MTAP deletion status (HCT116 MTAP+/+ and HCT116 MTAP−/−) were plated in 96-well dishes at appropriate cell density. Following 24 hours, cells were then treated with the candidate MAT2A inhibitor. […] Compound was then transferred to a working stock plate in cell culture media by adding 5 μL of compound in DMSO to 495 μL of cell culture media. This working stock was then added to cells via a further 5-fold dilution, by adding 25 μL of working stock to 100 μL of cells in culture media. Following compound addition, cells were incubated at 37° C./5% CO2 for 4 days.
(§3) The plate was then covered with aluminum foil and shaken for 15 minutes to ensure complete mixing and full cell lysis. […] This luminescence measure was converted to a proliferation index by subtracting from each data point the ATP luminescence signal measured from a bank (no cells) well and dividing by the ATP luminescence signal measured in 0.2% DMSO control well adjusted for signal in blank well.

[3] = system: SAM in HCT116 MTAP-deleted cells; experiment: Cellular assay of target engagement (SAM), LC-MS/MS; assay type: cell-based, human; conditions: 72 h, read-out: Cell 72 h SAM Inhibition (MTAP −/−)
Procedure: Measurement of MAT2A activity in cells was made by direct quantitation of the abundance of the product of its enzymatic activity, SAM. Cancer cells were treated with candidate MAT2A inhibitors for a suitable incubation period, and the cells were then lysed using a reagent which quenched any further enzyme activity. Soluble metabolites including SAM were collected and SAM itself was directly measured from the lysate using quantitative LC-MS/MS.
A typical assay was performed using an HCT116 human colon carcinoma cell line which was genetically engineered to delete the MTAP gene (commercially available from Horizon Discovery). […] Cells were plated in 96-well dishes at appropriate cell density. Following 24 hours, cells were then treated with the candidate MAT2A inhibitor. […] Compound was then transferred to a working stock plate in cell culture media by adding 5 μL of compound in DMSO to 495 μL of cell culture media. This working stock was then added to cells via a further 5-fold dilution, by adding 25 μL of working stock to 100 μL of cells in culture media. Following compound addition, cells were incubated at 37° C./5% CO2 for 72 hrs.
To quantitate SAM levels following compound treatment, cells were gently washed once in ammonium carbonate buffer (75 mM at pH 7.4), placed on dry ice, and lysed with metabolite extraction buffer (80% cold methanol and 20% water (v/v) with acetic acid at 1M final concentration with 200 ng/mL deuterated d3-SAM as internal control). Following centrifugation at 4° C. at 3,200 rpm for 30 minutes, the supernatant was collected and stored at −80° C. until analysis by Liquid Chromatography with tandem Mass Spectrometry (LC-MS/MS). LC-MS/MS analysis was performed using an API6500 Mass Spectrometer (Sciex, Framingham, Mass., USA) operating in positive ion spray mode and equipped with a Waters UPLC Acquity (Waters, Milford, Mass., USA) BEH Amide column.

[4] = system: HCT116 MTAP+/+; experiment: Inhibition of cellular proliferation (Cell Titer Glo), HCT116 MTAP+/+; assay type: cell-based; conditions: Homo sapiens, HCT-116, 96 h, Table 5a, 4 days, read-out: 4 Day Relative Growth Inhibition (MTAP +/+)
Procedure: as §1, §2, §3

[5] = Homo sapiens, HCT-116, 96 h, Table 5a
[6] = Homo sapiens, HCT-116, Table 5a
[7] = Table 6, select pairs of compounds

IC50 [1] | IC50 [2, 5] | IC50 [3, 6] | IC50 [4] | IC50 [2, 7] | IC50 [3, 7] | Compound
< 100 nM | 100 to 1000 nM | 100 to 1000 nM | 100 to 1000 nM |  |  | [2H]C([2H])([2H])Oc1ccc(N2C(=O)N(c3ccc4nn(C)cc4c3)Cc3cnc(NCC)nc32)cc1 [Example 419, 7-(ethylamino)-1-(4-(methoxy-d3)phenyl)-3-(2-methyl-2H-indazol-5-yl)-3,4-dihydropyrimido[4,5-d]pyrimidin-2(1H)-one]
< 100 nM | < 100 nM | < 100 nM | > 1000 nM |  |  | Cn1cc2cc(N3Cc4ccc(OCC(F)F)nc4N(c4ccc(NC(N)=O)cc4)C3=O)ccc2n1 [Example 412, 1-(4-(7-(2,2-difluoroethoxy)-3-(2-methyl-2H-indazol-5-yl)-2-oxo-3,4-dihydropyrido[2,3-d]pyrimidin-1(2H)-yl)phenyl)urea]
100 to 1000 nM | > 1000 nM | 100 to 1000 nM | > 1000 nM |  |  | COc1ccc(N2Cc3cnc(NCC(F)(F)F)nc3N(c3ccc(C(F)(F)F)cc3)C2=O)cc1 [Example 250, 3-(4-methoxyphenyl)-7-((2,2,2-trifluoroethyl)amino)-1-(4-(trifluoromethyl)phenyl)-3,4-dihydropyrimido[4,5-d]pyrimidin-2(1H)-one]
< 100 nM | 100 to 1000 nM | 100 to 1000 nM | > 1000 nM | 100 to 1000 nM | 100 to 1000 nM | CCNc1ncc2c(n1)N(c1ccc(OC(F)F)cc1)C(=O)N(c1ccc3nn(C)cc3c1)C2 [Example 190, 1-(4-(difluoromethoxy)phenyl)-7-(ethylamino)-3-(2-methyl-2H-indazol-5-yl)-3,4-dihydropyrimido[4,5-d]pyrimidin-2(1H)-one]
< 100 nM | 100 to 1000 nM | < 100 nM | > 1000 nM |  |  | [2H]C([2H])([2H])Oc1ccc(N2C(=O)N(c3ccc4nn(CC(F)F)cc4c3)Cc3ccc(OCC(F)F)nc32)cc1 [Example 119, 7-(2,2-difluoroethoxy)-3-(2-(2,2-difluoroethyl)-2H-indazol-5-yl)-1-(4-methoxy-d3-phenyl)-3,4-dihydropyrido[2,3-d]pyrimidin-2(1H)-one]
< 100 nM | 100 to 1000 nM | 100 to 1000 nM | > 1000 nM |  |  | COc1ccc(N2C(=O)N(c3ccc4nccn4c3)Cc3cnc(NCC(F)(F)F)nc32)cc1 [Example 237]
< 100 nM | 100 to 1000 nM | 100 to 1000 nM | > 1000 nM |  |  | CCOc1cnc2c(c1)N(c1ccc(OC(F)F)cc1)C(=O)N(c1ccc3nn(C)cc3c1)C2 [Example 290]
< 100 nM | < 100 nM | < 100 nM | > 1000 nM | < 100 nM | < 100 nM | CCNc1ccc2c(n1)N(c1ccc(OC(F)F)cc1)C(=O)N(c1ccc3ncn(C)c3c1)C2 [Example 274]
< 100 nM | < 100 nM | < 100 nM | > 1000 nM | < 100 nM | < 100 nM | Cn1cc2cc(N3Cc4ccc(NCC(F)(F)F)nc4N(c4ccc(OC(F)F)cc4)C3=O)ccc2n1 [Example 264, 1-(4-(difluoromethoxy)phenyl)-3-(2-methyl-2H-indazol-5-yl)-7-((2,2,2-trifluoroethyl)amino)-3,4-dihydropyrido[2,3-d]pyrimidin-2(1H)-one]
< 100 nM | 100 to 1000 nM | 100 to 1000 nM | > 1000 nM |  |  | CCOc1ccc2c(n1)N(c1ccc(OC(F)F)cc1)C(=O)N(c1ccc3nncn3c1)C2 [Example 108, 3-([1,2,4]triazolo[4,3-a]pyridin-6-yl)-1-(4-(difluoromethoxy)phenyl)-7-ethoxy-3,4-dihydropyrido[2,3-d]pyrimidin-2(1H)-one]
< 100 nM | 100 to 1000 nM | 100 to 1000 nM |  |  |  | COc1ccc(N2C(=O)N(c3ccc4nccnc4c3)Cc3cnc(NCC(F)(F)F)nc32)cc1 [Example 233, 1-(4-methoxyphenyl)-3-(quinoxalin-6-yl)-7-((2,2,2-trifluoroethyl)amino)-3,4-dihydropyrimido[4,5-d]pyrimidin-2(1H)-one]

Second part, the molecule before the results:

Compound | IC50 [1] | IC50 [2, 5] | IC50 [3, 6] | IC50 [4] | IC50 [2, 7] | IC50 [3, 7]
[2H]C([2H])([2H])Oc1ccc(N2C(=O)N(c3ccc4nn(C)cc4c3)Cc3ncc(OCC)nc32)cc1 [Example 417, 7-ethoxy-1-(4-(methoxy-d3)phenyl)-3-(2-methyl-2H-indazol-5-yl)-3,4-dihydropteridin-2(1H)-one] | < 100 nM | 100 to 1000 nM | < 100 nM | 100 to 1000 nM |  | 
[2H]C([2H])([2H])Oc1ccc(N2C(=O)N(c3ccc4nn(C)cc4c3)Cc3c(C)cc(OCC(F)F)nc32)cc1 [Example 185, 7-(2,2-difluoroethoxy)-1-(4-methoxy-d3-phenyl)-5-methyl-3-(2-methyl-2H-indazol-5-yl)-3,4-dihydropyrido[2,3-d]pyrimidin-2(1H)-one] | < 100 nM | < 100 nM | < 100 nM | 100 to 1000 nM |  | 
Cn1cc2cc(N3Cc4ccc(OCC(F)F)nc4N(c4ccc5oc(N)nc5c4)C3=O)ccc2n1 [Example 411, 1-(2-aminobenzo[d]oxazol-5-yl)-7-(2,2-difluoroethoxy)-3-(2-methyl-2H-indazol-5-yl)-3,4-dihydropyrido[2,3-d]pyrimidin-2(1H)-one] | < 100 nM | < 100 nM | < 100 nM | > 1000 nM |  | 
COc1ccc(N2C(=O)N(c3cn[nH]c3)Cc3cnc(NCC(F)(F)F)nc32)cc1 [Example 231, 1-(4-methoxyphenyl)-3-(1H-pyrazol-4-yl)-7-((2,2,2-trifluoroethyl)amino)-3,4-dihydropyrimido[4,5-d]pyrimidin-2(1H)-one] | 100 to 1000 nM | > 1000 nM | 100 to 1000 nM | > 1000 nM |  | 
COc1ccc(N2Cc3cnc(NCC(F)(F)F)nc3N(c3ccc(CCO)cc3)C2=O)cc1 [Example 206, 1-(4-(2-hydroxyethyl)phenyl)-3-(4-methoxyphenyl)-7-((2,2,2-trifluoroethyl)amino)-3,4-dihydropyrimido[4,5-d]pyrimidin-2(1H)-one] | < 100 nM | 100 to 1000 nM | 100 to 1000 nM | > 1000 nM |  | 
[2H]C([2H])([2H])Oc1ccc(N2C(=O)N(c3ccc4ncsc4c3)Cc3ccc(OCC(F)F)nc32)cc1 [Example 102, 3-(benzo[d]thiazol-6-yl)-7-(2,2-difluoroethoxy)-1-(4-(methoxy-d3)phenyl)-3,4-dihydropyrido[2,3-d]pyrimidin-2(1H)-one] | < 100 nM | 100 to 1000 nM | < 100 nM | > 1000 nM |  | 
CCOc1cnc2c(n1)N(c1ccc(OC(F)F)cc1)C(=O)N(c1ccc(OC)cc1)C2 [Example 186, 1-(4-(difluoromethoxy)phenyl)-7-ethoxy-3-(4-methoxyphenyl)-3,4-dihydropteridin-2(1H)-one] | < 100 nM | < 100 nM | 100 to 1000 nM | 100 to 1000 nM |  | 
[2H]C([2H])([2H])Oc1ccc(N2C(=O)N(c3ccc4nn(C)c(OC)c4c3)Cc3ccc(OCC(F)F)nc32)cc1 [Example 104, 7-(2,2-difluoroethoxy)-3-(3-methoxy-2-methyl-2H-indazol-5-yl)-1-(4-(methoxy-d3)phenyl)-3,4-dihydropyrido[2,3-d]pyrimidin-2(1H)-one] | < 100 nM | < 100 nM | < 100 nM | 100 to 1000 nM |  | 
